Test results reported in publication PMC9781827, “Isolation and Identification of Anti-Inflammatory Peptide from Goose Blood Hydrolysate to Ameliorate LPS-Mediated Inflammation and Oxidative Stress in RAW264.7 Macrophages” (Molecules, 2022).

What was measured:
Type in all cases: cell-based
iNOS = assay: Western blot of iNOS in RAW264.7 macrophages; details: LPS group vs CTRL group, p < 0.05
Experimental: (§1) RAW264.7 macrophages were washed with cold PBS and homogenized with two small magnetic beads (2 mm) and 10× volume of RIPA buffer containing 1% protease inhibitors for 60 s. Then the supernatant was collected after centrifuging at 12,000× g for 10 min at 4 °C, which was the total protein solution. The concentration of protein in the total protein solution was measured by BCA kits. The protein concentration of the supernatant was diluted to 2.0 mg/mL and mixed with an equal volume of buffer (0.25 mol/L Tris-HCl buffer, pH 6.8, containing 4% SDS and 20% glycerol with 20 mmol/L 2-mercaptoethanol). The stacking gel and separating gel were made of 5% (w/v) and 10% (w/v) polyacrylamide, respectively. Electrophoresis was carried out at 80 V until the dye front reached the bottom of the stacking gel, and the gel was run at 120 V until the dye front reached the bottom of the separating gel (165-8001, Bio-Rad Mini-PROTEAN Tetra Electrophoresis System). The PVDF membrane was covered on the gel and transferred membrane at 300 mA for 30 min. The membrane was moved into a decolorization shaker with 5% skim milk (0.5% TBST) and blocked for 1 h at room temperature. […] The film was scanned and archived, processed and decolorized by Photoshop, and the optical density value of the target band was analysed by ImageJ software processing system.

SOD = SOD activity in LPS-mediated RAW264.7 macrophages; details: LPS alone; mean ± S.D., n = 3
Experimental: The culture medium was collected and centrifuged at 3000× g for 10 min. Then, the inflammatory cytokines levels of TNF-α (MB-50051A), IL-1β (MB-50064B) and IL-6 (MB-50054A) in the culture medium were determined with ELISA kits (Jiangsu Enzyme marker Biotechnology Co., Ltd., Yancheng, China). […] (7) Add 50 μL of stop solution to each well, and measure its absorbance value at 450 nm wavelength. The activities of SOD, GSH-Px and the levels of ROS and Nitric oxide (NO) in macrophages were determined with spectrophotometric kits. […] The absorbance value of miscible liquid was measured at 450 nm wavelength by a multifunctional microplate reader; GSH-Px: 0.2 mL of sample was mixed with 0.2 mL GSH-Px (1 mmol/L) and performed at 37 °C for 5 min. […] The absorbance value was measured at 412 nm wavelength by a multifunctional microplate reader; ROS: DCFH-DA probe was added directly to serum-free medium: DCFH-DA was generally diluted with serum-free medium at a final concentration of 10 µM at 1:1000. […] In general, obvious green fluorescence can be observed in positive control cells after 20 min of stimulation. […] It can also be detected according to FITC fluorescence detection conditions. The results were expressed as fluorescence values.

[1] = system: TLR4, CD14, MD-2, MyD88, p-NF-kB/NF-kB, IKKβ; assay: Western blot of TLR4, CD14, MD-2, MyD88, p-NF-kB/NF-kB, IKKβ in RAW264.7 macrophages; details: LPS group vs CTRL group, p < 0.05
Experimental: as §1

**Q.** With lipopolysaccharide [LPS] as the substance, how does the “protein expression level of iNOS” value (iNOS) read?
**A.** higher

**Q.** And the “level of SOD” value (SOD)?
**A.** 24.43 ± 1.41 U/mg prot

**Q.** What about the “protein expression levels of TLR4, CD14, MD2, MyD88, p-NF-kB, NF-kB and IKKβ” value [1] of the same substance?
**A.** elevated
